# Measured values from patent US20030220373A1, “Therapeutic uses of PPAR mediators” (priority 2000, published 2003).
# Test system: ABC1 expression
# Experiment: ABC1 up-regulation in human primary hepatocytes (RNA analysis)
# Assay type: cell-based
# Conditions: human primary hepatocytes (FIG. 4)
# Procedure: Assay Example 2: ABC 1 Up-regulation in Human Hepatocytes and Human Macrophages Derived Monocytes by Fenofibric Acid, and for Wy 14,643 and Related Cholesterol Efflux in Macrophages Human liver specimens are collected from healthy multiorgan donors for transplantation who died after severe traumatic brain injury. Hepatocytes are obtained by a two-step collagenase perfusion (REF). Cells are resuspended in minimal essential medium with Earl's salts with 10% FCS, 2 mM glutamine, […] gentamycin, seeded at density of 1.5×10^5 cells/cm^2 in plastic culture dishes coated with 20 mg rat tail collagene type I (Sigma).Medium is renewed after 4 hours of adhesion. After 20 hours the medium is discarded and differents compounds added at the indicated concentrations in serum-free medium. Total cellular RNA is extracted from differentated macrophages treated for 6 hours with different compounds using the RNA plus kit (Bioprobe System, Montreuil, france). RNA from human hepatocytes are prepared as described by Chomczynski and Sacchi. For RT-PCR analysis, total RNA is reverse transcribed using random hexamer primers and Superscript reverse transcriptase (Life Technologies) as sebsequently amplified by PCR. The resulting products are separated on a 1% agrose gel and stained with ethidium bromide.
row,Compound,ABC1 up-regulation
1,"Cc1cccc(Nc2cc(Cl)nc(SCC(=O)O)n2)c1C [Wy 14,643, pyrinixic acid]",ABC1 up-regulation

# Test system: not given
# Experiment: not given
# Conditions: not given
row,melting point,Compound
1,86 to 87 °C,"N#Cc1cccc(OCc2cccc(OCc3ccc4ccccc4n3)c2)c1 [Example 7, 3-[3-(2-quinolinylmethyloxy)benzyloxy]benzonitrile]"
2,169 to 172 °C,"c1cc(COc2cccc(-c3nnn[nH]3)c2)cc(OCc2ccc3ccccc3n2)c1 [Example 10, 5-[3-(3-(2-quinolinylmethyloxy)benzyloxy)-phenyl]tetrazole]"
3,210 to 213 °C,"c1ccc2nc(COc3ccc(COc4ccc(-c5nnn[nH]5)cc4)cc3)ccc2c1 [Example 11, 5-[4-(4-(2-quinolinylmethyloxy)benzyloxy)phenyl]tetrazole]"
4,179 to 181 °C,"c1ccc2nc(COc3ccc(COc4ccc(Cc5nnn[nH]5)cc4)cc3)ccc2c1 [Example 12, 5-[4(4-(2-quinolinylmethyloxy)benzyloxy)benzyl]tetrazole]"
5,100 to 101 °C,"COC(=O)c1ccc(OCc2cccc(OCc3ccc4ccccc4n3)c2)c(OC)c1 [Example 14, methyl 3-methoxy-4-(3-(2-quinolinylmethyloxy)benzyloxy)-benzoate]"
6,188 to 190 °C,"COc1cc(C(=O)O)ccc1OCc1cccc(OCc2ccc3ccccc3n2)c1 [Example 15, 3-methoxy-4-(3-(2-quinolinylmethyloxy)benzyloxy)benzoic acid]"
7,93 to 94 °C,"COC(=O)c1cccc(COc2cccc(OCc3ccc4ccccc4n3)c2)c1 [Example 19, methyl 3-(3-(2-quinolinylmethyloxy)phenoxymethyl)benzoate]"
8,149 to 151 °C,"O=C(O)c1cccc(COc2cccc(OCc3ccc4ccccc4n3)c2)c1 [Example 20, 3-(3-(2-quinolinylmethyloxy)phenoxymethyl)-benzoic acid]"
9,145.5 to 147 °C,"c1cc(OCc2ccc3ccccc3n2)cc(OCc2ccccc2Cc2nnn[nH]2)c1 [Example 28, 5-(2-(3-(2-quinolinylmethyloxy)phenoxymethyl)benzyl)tetrazole]"
10,166 to 170 °C,"c1cc(OCc2ccc3ccccc3n2)cc(OCc2ccccc2-c2nnn[nH]2)c1 [Example 28, 5-(2-(3-(2-quinolinylmethyloxy)phenoxymethyl)phenyl)tetrazole]"
11,115 °C (dec.),"c1cc(OCc2cccc(-c3nnn[nH]3)c2)cc(OCc2ccc3ccccc3n2)c1 [Example 28, 5-(3-(3-(2-quinolinylmethyloxy)phenoxymethyl)phenyl)tetrazole]"
12,149 to 151 °C,"c1cc(OCc2ccc(Cc3nnn[nH]3)cc2)cc(OCc2ccc3ccccc3n2)c1 [Example 28, 5-(4-(3-(2-quinolinylmethyloxy)phenoxymethyl)benzyl)tetrazole]"
13,131 to 132 °C,"c1cc(COc2ccc(OCc3ccc4ccccc4n3)cc2)cc(OCc2nnn[nH]2)c1 [Example 32, 5-(3-(4-(2-quinolinylmethyloxy)phenoxymethyl)phenoxymethyl)tetrazole]"

# Test system: ABC1 expression
# Experiment: ABC1 up-regulation in human THP-1 cells by PPAR mediators (Northern blotting; also quantitative PCR Taqman)
# Assay type: cell-based
# Conditions: relative to DMSO
# Procedure: THP-1 cells, a human monocytic cell line, are maintained in RPMI with 10% FCS (fetal calf serum)/[…] gentamycin/25 mM Hepes. Cells are plated at approximately 1×10^5 per cm^2 in RPMI/10% charcoal-stripped FCS (Hyclone) the presence or absence of 100 ng/ml PMA (phorbol myritic acid)(Gibco BRL) and the indicated concentrations of test compound or DMSO (dimethyl sulfoxide). Test compounds are refreshed daily. Alternatively, cells are incubated with […] AcLDL (acetylated LDL) as positive control. After 48 or 72 hours, cellular RNA is isolated with Trizol® (Gibco) according to the manufacturer's instructions. Total RNA ([…]) is subjected to Northern blotting. The fragment used as a probe is a 431bp PCR product of ABC1 corresponding to nucleotides (nt's) 3306-3737 of Genbank Ace # AJ012376 (T. Langmann et al,1999, BBRC 257, 29-33). The sequences of the primers usd to generate the fragment are: […] nt. pos 3306-3326 (forward); […] nt. pos 3737-3711 (reverse). Blots are hybridized with this probe labelled with [a32P]dCTP (Amersham) with ExpressHyb® (Clontech, Palo Alto Calif.) according to manufacturer's protocol, washed, and exposed to X-ray film. Resulting signals are quantitated by densitometry.
# A representative example of a Northern blotting analysis is represented in FIG. 1 and corresponding graph bar in FIG. 2.
row,Compound,increase in up-regulation of ABC 1 expression relative to treatment with DMSO
1,"c1ccc(Cc2nnn[nH]2)c(COc2ccc(OCc3ccc4ccccc4n3)cc2)c1 [compound of formula VI, 5-[2-(4-(2-quinolinylmethoxy)phenoxymethyl)benzyl]tetrazole]",fourteen fold increase

# Same assay, conditions: treatment at 1 and 10 μM, Northern blotting (FIG. 1, FIG. 2)
row,Compound,up-regulation of ABC1 expression
1,Cc1cccc(COc2cccc(OCc3ccc4ccccc4n3)c2)c1C(=O)O [RPR52],up-regulation of ABC1 expression
2,Cc1cc(OCc2ccccc2)cc(OCc2cccc(OCc3ccc4ccccc4n3)c2)c1C(=O)O [RPR64],up-regulation of ABC1 expression
